Earlier results on one molecule are cited in patent publication US20230338288A1, “ASYMMETRIC CHARGED VESICLES AND METHODS OF PREPARING AND USE THEREOF” (The Research Foundation for the State University of New York, priority 2020, published 2023).

For this data set the following is noted: compared with Doxil (liposome-encapsulated Dox).

`COc1cccc2c1C(=O)c1c(O)c3c(c(O)c1C2=O)C[C@@](O)(C(=O)CO)C[C@@H]3O[C@H]1C[C@H](N)[C@H](O)[C@H](C)O1` [Dox, Doxorubicin]: the “dose that can be delivered without exhibiting cardiotoxicity, fold less than with Doxil” value was 10-50 fold.
